From patent US20230407243A1, “GENETIC PLATFORM TO INVESTIGATE THE FUNCTIONS OF BACTERIAL DRUG EFFLUX PUMPS” (priority 2022, published 2023)
Where two headings read alike, the source gives them in different places.

Columns and labels:
Format in all cases: cell-based, Escherichia coli
[1] = system: EKO-35-Pore; assay: Checkerboard synergy (FICI), porinated strain
Outline: (§1)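 MHB II, CLSI microdilution checkerboard, colony-resuspension inoculum, solvent controls per plate. MIC = no growth at OD600. FICI summed from FIC of PAβN/NMP and antibiotic; <0.5 synergistic, >2.0 antagonistic.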

[2] = system: EKO-35 porinated strain expressing acrB; assay: Checkerboard synergy (FICI), porinated strain
Outline: as §1

[3] = system: EKO-35-Pore acrBD408A (functionally inactive AcrB variant); assay: Checkerboard synergy (FICI), porinated strain
Outline: as §1

[4] = system: wild-type K-12-Pore; assay: Checkerboard synergy (FICI), porinated strain
Outline: as §1

[5] = system: EKO-35 strains producing different efflux pumps (EKO-35 araC::X); assay: Checkerboard synergy (FICI) of PAβN or NMP with antibiotics
Outline: as §1

[6] = system: EKO-35
Outline: as §1

[7] = system: ΔtolC-Pore
Outline: as §1

[8] = system: wild-type E. coli K-12
Outline: as §1

[9] = strain EKO-35 Pore, NMP + antibiotic
[10] = EKO-35 acrB Pore, NMP + antibiotic
[11] = EKO-35 acrB Pore, PAβN + antibiotic
[12] = strain EKO-35 acrB Pore, NMP + antibiotic
[13] = EKO-35 acrBD408A Pore, NMP + antibiotic
[14] = EKO-35 acrBD408A Pore, PAβN + antibiotic
[15] = strain EKO-35 acrBD408A Pore, NMP + antibiotic
[16] = strain K-12 Pore, NMP + antibiotic
[17] = EKO-35 mdtEF, PAβN + antibiotic
[18] = strain EKO-35 acrB, NMP + antibiotic
[19] = strain EKO-35 acrD, NMP + antibiotic
[20] = strain EKO-35 acrEF, NMP + antibiotic
[21] = strain EKO-35, NMP + antibiotic
[22] = strain ΔtolC Pore, NMP + antibiotic

With `CC(=O)O[C@H]1C[C@@]2(C)[C@@H](C[C@@H](O)[C@H]3[C@@]4(C)CC[C@@H](O)[C@@H](C)[C@@H]4CC[C@@]32C)/C1=C(\CCC=C(C)C)C(=O)O` [fusidic acid] the Effect ([1]; EKO-35 Pore, NMP + antibiotic) was “Additive”, the FICI ([1]; EKO-35 Pore, NMP + antibiotic) was 0.620 and the Effect ([1]; EKO-35 Pore, PAβN + antibiotic) was “Synergistic”. For the same compound, the FICI ([1]; EKO-35 Pore, PAβN + antibiotic) was 0.310, the “MICb Alone” value ([1]; EKO-35 Pore, antibiotic alone (PAβN checkerboard)) was 1 µg/mL and the “MICb Combined” value ([1]; EKO-35 Pore, antibiotic in combination with PAβN) was 0.06 µg/mL. The “interaction of PAβN in combination with the labelled antibiotic (FICI)” value ([1]; porinated efflux-deficient strains) was “synergy was maintained”, the Effect [1, 9] was “Additive (additive (FICI >0.5-1.0))” and the FICI [1, 9] was 0.620. For the same compound, the “MICb Alone” value ([1]; strain EKO-35 Pore, antibiotic alone) was 0.5 µg/mL, the “MICb Combined” value ([1]; strain EKO-35 Pore, antibiotic in combination with NMP) was 0.06 µg/mL and the Effect [2, 10] was “Synergistic”. For the same compound, the FICI [2, 10] was 0.500, the Effect [2, 11] was “Synergistic” and the FICI [2, 11] was 0.129. For the same compound, the “MICb Alone” value ([2]; EKO-35 acrB Pore, antibiotic alone (PAβN checkerboard)) was 512 µg/mL, the “MICb Combined” value ([2]; EKO-35 acrB Pore, antibiotic in combination with PAβN) was 2 µg/mL and the “potentiation of the labelled compound by NMP” value ([2]; porinated strain producing AcrB) was “enhancing the activity”. For the same compound, the Effect [2, 12] was “Synergistic (Synergy (FICI ≤0.5))”, the FICI [2, 12] was 0.500 and the “MICb Alone” value ([2]; strain EKO-35 acrB Pore, antibiotic alone) was 512 µg/mL. For the same compound, the Effect [3, 13] was “Additive”, the FICI [3, 13] was 0.750 and the Effect [3, 14] was “Synergistic”. For the same compound, the FICI [3, 14] was 0.255, the “MICb Alone” value ([3]; EKO-35 acrBD408A Pore, antibiotic alone (PAβN checkerboard)) was 1 µg/mL and the “MICb Combined” value ([3]; EKO-35 acrBD408A Pore, antibiotic in combination with PAβN) was 0.13 µg/mL. The Effect [3, 15] was “Additive (additive (FICI >0.5-1.0))”, the FICI [3, 15] was 0.750 and the “MICb Alone” value ([3]; strain EKO-35 acrBD408A Pore, antibiotic alone) was 0.5 µg/mL. The “MICb Combined” value ([3]; strain EKO-35 acrBD408A Pore, antibiotic in combination with NMP) was 0.25 µg/mL, the Effect ([4]; K-12 Pore, NMP + antibiotic) was “Synergistic” and the FICI ([4]; K-12 Pore, NMP + antibiotic) was 0.500. The Effect ([4]; K-12 Pore, PAβN + antibiotic) was “Synergistic”, the FICI ([4]; K-12 Pore, PAβN + antibiotic) was 0.188 and the “MICb Alone” value ([4]; K-12 Pore, antibiotic alone (PAβN checkerboard)) was 512 µg/mL. For the same compound, the “MICb Combined” value ([4]; K-12 Pore, antibiotic in combination with PAβN) was 32 µg/mL, the Effect [4, 16] was “Synergistic (Synergy (FICI ≤0.5))” and the FICI [4, 16] was 0.500. The “MICb Alone” value ([4]; strain K-12 Pore, antibiotic alone) was 512 µg/mL, the Effect ([5]; EKO-35 acrB, NMP + antibiotic) was “Synergistic” and the FICI ([5]; EKO-35 acrB, NMP + antibiotic) was 0.500. For the same compound, the Effect ([5]; EKO-35 acrB, PAβN + antibiotic) was “Synergistic”, the FICI ([5]; EKO-35 acrB, PAβN + antibiotic) was 0.129 and the “MICb Combined” value ([5]; EKO-35 acrB, antibiotic in combination with PAβN) was 4 µg/mL. For the same compound, the Effect ([5]; EKO-35 acrD, NMP + antibiotic) was “Additive”, the FICI ([5]; EKO-35 acrD, NMP + antibiotic) was 0.563 and the Effect ([5]; EKO-35 acrD, PAβN + antibiotic) was “Synergistic”. For the same compound, the FICI ([5]; EKO-35 acrD, PAβN + antibiotic) was 0.141, the “MICb Alone” value ([5]; EKO-35 acrD, antibiotic alone (PAβN checkerboard)) was 256 µg/mL and the “MICb Combined” value ([5]; EKO-35 acrD, antibiotic in combination with PAβN) was 4 µg/mL. For the same compound, the Effect ([5]; EKO-35 acrEF, NMP + antibiotic) was “Additive”, the FICI ([5]; EKO-35 acrEF, NMP + antibiotic) was 0.750 and the Effect ([5]; EKO-35 acrEF, PAβN + antibiotic) was “Synergistic”. For the same compound, the “MICb Alone” value ([5]; EKO-35 acrEF, antibiotic alone (PAβN checkerboard)) was 32 µg/mL, the “MICb Combined” value ([5]; EKO-35 acrEF, antibiotic in combination with PAβN) was 8 µg/mL and the Effect ([5]; EKO-35 mdtEF, NMP + antibiotic) was “Synergistic”. For the same compound, the Effect [5, 17] was “Synergistic”, the FICI [5, 17] was 0.250 and the “MICb Alone” value ([5]; EKO-35 mdtEF, antibiotic alone (PAβN checkerboard)) was 64 µg/mL. The “MICb Combined” value ([5]; EKO-35 mdtEF, antibiotic in combination with PAβN) was 8 µg/mL, the Effect [5, 18] was “Synergistic (Synergy (FICI ≤0.5))” and the FICI [5, 18] was 0.500. The “MICb Combined” value ([5]; strain EKO-35 acrB, antibiotic in combination with NMP) was 256 µg/mL, the Effect [5, 19] was “Additive (additive (FICI >0.5-1.0))” and the FICI [5, 19] was 0.563. For the same compound, the “MICb Alone” value ([5]; strain EKO-35 acrD, antibiotic alone) was 256 µg/mL, the “MICb Combined” value ([5]; strain EKO-35 acrD, antibiotic in combination with NMP) was 16 µg/mL and the Effect [5, 20] was “Additive (additive (FICI >0.5-1.0))”. For the same compound, the FICI [5, 20] was 0.750, the “MICb Alone” value ([5]; strain EKO-35 acrEF, antibiotic alone) was 32 µg/mL and the “MICb Combined” value ([5]; strain EKO-35 acrEF, antibiotic in combination with NMP) was 16 µg/mL. The Effect ([5]; strain EKO-35 mdtEF, NMP + antibiotic) was “Synergistic (Synergy (FICI ≤0.5))”, the “MICb Alone” value ([5]; strain EKO-35 mdtEF, antibiotic alone) was 64 µg/mL and the “MICb Combined” value ([5]; strain EKO-35 mdtEF, antibiotic in combination with NMP) was 8 µg/mL. The Effect ([6]; EKO-35, NMP + antibiotic) was “Additive”, the FICI ([6]; EKO-35, NMP + antibiotic) was 0.625 and the Effect ([6]; EKO-35, PAβN + antibiotic) was “Synergistic”. The FICI ([6]; EKO-35, PAβN + antibiotic) was 0.158, the “MICb Alone” value ([6]; EKO-35, antibiotic alone (PAβN checkerboard)) was 4 µg/mL and the “MICb Combined” value ([6]; EKO-35, antibiotic in combination with PAβN) was 0.13 µg/mL. For the same compound, the “interaction of PAβN in combination with the labelled antibiotic (FICI)” value ([6]; efflux-deficient strains EKO-35, EKO-35 acrBD408A, ΔtolC) was “synergized”, the Effect [6, 21] was “Additive (additive (FICI >0.5-1.0))” and the FICI [6, 21] was 0.625. The “MICb Alone” value ([6]; strain EKO-35, antibiotic alone) was 4 µg/mL, the “MICb Combined” value ([6]; strain EKO-35, antibiotic in combination with NMP) was 0.5 µg/mL and the Effect [7, 22] was “Additive (additive (FICI >0.5-1.0))”. The FICI [7, 22] was 0.750, the “MICb Alone” value ([7]; strain ΔtolC Pore, antibiotic alone) was 2 µg/mL and the “MICb Combined” value ([7]; strain ΔtolC Pore, antibiotic in combination with NMP) was 1 µg/mL. For the same compound, the Effect ([7]; ΔtolC Pore, NMP + antibiotic) was “Additive”, the FICI ([7]; ΔtolC Pore, NMP + antibiotic) was 0.750 and the Effect ([7]; ΔtolC Pore, PAβN + antibiotic) was “Synergistic”. The FICI ([7]; ΔtolC Pore, PAβN + antibiotic) was 0.375, the “MICb Alone” value ([7]; ΔtolC Pore, antibiotic alone (PAβN checkerboard)) was 2 µg/mL and the “MICb Combined” value ([7]; ΔtolC Pore, antibiotic in combination with PAβN) was 0.25 µg/mL. The Effect ([8]; K-12, NMP + antibiotic) was “Synergistic”, the FICI ([8]; K-12, NMP + antibiotic) was 0.375 and the Effect ([8]; K-12, PAβN + antibiotic) was “Synergistic”. The FICI ([8]; K-12, PAβN + antibiotic) was 0.156, the “MICb Alone” value ([8]; K-12, antibiotic alone (PAβN checkerboard)) was 1024 µg/mL and the “MICb Combined” value ([8]; K-12, antibiotic in combination with PAβN) was 32 µg/mL. The Effect ([8]; strain K-12, NMP + antibiotic) was “Synergistic (Synergy (FICI ≤0.5))”, the FICI ([8]; strain K-12, NMP + antibiotic) was 0.375 and the “MICb Alone” value ([8]; strain K-12, antibiotic alone) was 1024 µg/mL. For the same compound, the “MICb Combined” value ([8]; strain K-12, antibiotic in combination with NMP) was 128 µg/mL.
